This passage reports EC50 results from patent US11058678B2 (Enanta Pharmaceuticals, Inc., priority 2018, dated 2021).

This assay relates to HBV (2.2.15 cells). The assay is described as follows: Antiviral activity in 2.2.15 cells: reduction of viral product accumulation (qPCR of lysates, HBsAg or HBeAg ELISA). Type of assay: cell-based, hepatitis B virus (HBV). As to conditions: Hepatitis B virus, 120 h, day 5 post treatment, 50% reduction of viral product accumulation in lysates or supernatants vs no drug controls, readout (qPCR, HBsAg, HBeAg) not specified. As for the experimental part: 2.2.15 cells are passaged upon attaining confluency in DMEM/F12 media in the presence of 10% FBS, Penn/Strep, and 250 ug/mL G418. Novel compounds are 5 fold serially diluted in DMSO and added to 96 well plates containing 35,000 cells/well at a 1:200 dilution so that the final concentration of DMSO is 0.5%. On day 5, post treatment cell lysates and supernatants are harvested for analysis.
Cells are lysed using Agilent Sidestep Lysis buffer, diluted 1:100 and quantified via quantitative real time PCR. Commercially available ELISA kits are used to quantitate the viral proteins HBsAg (Alpco) or HBeAg (US Biological) by following the manufacturer's recommended protocol after diluting samples to match the linear range of their respective assays. Irrespective of readout, compound concentrations that reduce viral product accumulation in the cell lysates or supernatants by 50% relative to no drug controls (EC50) are reported; EC50 ranges are as follows: A<0.1 μM; B 0.1-1 μM; C>1 μM.

Some results are limits rather than exact numbers.

With `COCCCOc1cc2c(cc1-c1ccccc1OC(F)(F)F)-c1cc(=O)c(C(=O)O)cn1[C@H](C(C)(C)C)C2` [Example 58, (S)-6-(tert-butyl)-9-(3-methoxypropoxy)-2-oxo-10-(2-(trifluoromethoxy)phenyl)-6,7-dihydro-2H-pyrido[2,1-a]isoquinoline-3-carboxylic Acid], the EC50 (in general, the concentration needed to bring the measured effect to its halfway point) was greater than 1000 nM. With `Cn1nccc1-c1cc2c(c3c1OCC3)C[C@@H](C(C)(C)C)n1cc(C(=O)O)c(=O)cc1-2` [Example 68, (S)-5-(tert-butyl)-12-(1-methyl-1H-pyrazol-5-yl)-9-oxo-2,3,4,9-tetrahydro-5H-furo[3,2-f]pyrido[2,1-a]isoquinoline-8-carboxylic Acid] the figure was less than 100 nM. With `Cn1cc(-c2cc3c(c4c2OCC4)C[C@@H](C(C)(C)C)n2cc(C(=O)O)c(=O)cc2-3)cn1` [Example 69, (S)-5-(tert-butyl)-12-(1-methyl-1H-pyrazol-4-yl)-9-oxo-2,3,4,9-tetrahydro-5H-furo[3,2-f]pyrido[2,1-a]isoquinoline-8-carboxylic Acid], the concentration for a half-maximal effect (EC50) is less than 100 nM. `Cn1ccc(-c2cc3c(c4c2OCC4)C[C@@H](C(C)(C)C)n2cc(C(=O)O)c(=O)cc2-3)n1` [Example 70, (S)-5-(tert-butyl)-12-(1-methyl-1H-pyrazol-3-yl)-9-oxo-2,3,4,9-tetrahydro-5H-furo[3,2-f]pyrido[2,1-a]isoquinoline-8-carboxylic Acid] showed a 50% effective concentration (EC50) of less than 100 nM. On to `CC(C)(C)[C@@H]1Cc2c(cc(-c3ccco3)c3c2CCO3)-c2cc(=O)c(C(=O)O)cn21` [Example 72, (S)-5-(tert-butyl)-12-(furan-2-yl)-9-oxo-2,3,4,9-tetrahydro-5H-furo[3,2-f]pyrido[2,1-a]isoquinoline-8-carboxylic Acid], for which the EC50 was less than 100 nM. Compound `CC(C)(C)[C@@H]1Cc2c(cc(-c3cnsc3)c3c2CCO3)-c2cc(=O)c(C(=O)O)cn21` [Example 73, (S)-5-(tert-butyl)-12-(isothiazol-4-yl)-9-oxo-2,3,4,9-tetrahydro-5H-furo[3,2-f]pyrido[2,1-a]isoquinoline-8-carboxylic Acid] returned an EC50 of less than 100 nM. To `CC(C)(C)[C@@H]1Cc2c(cc(-c3ccncc3)c3c2CCO3)-c2cc(=O)c(C(=O)O)cn21` [Example 74, (S)-5-(tert-butyl)-9-oxo-12-(pyridin-4-yl)-2,3,4,9-tetrahydro-5H-furo[3,2-f]pyrido[2,1-a]isoquinoline-8-carboxylic Acid] belongs less than 100 nM; to `CC(C)(C)[C@@H]1Cc2c(cc(-c3cccnc3)c3c2CCO3)-c2cc(=O)c(C(=O)O)cn21` [Example 75, (S)-5-(tert-butyl)-9-oxo-12-(pyridin-3-yl)-2,3,4,9-tetrahydro-5H-furo[3,2-f]pyrido[2,1-a]isoquinoline-8-carboxylic Acid], less than 100 nM. `CC(C)(C)[C@@H]1Cc2c(cc(-c3ccccc3Cl)c3c2CCO3)-c2cc(=O)c(C(=O)O)cn21` [Example 76, (S)-5-(tert-butyl)-12-(2-chlorophenyl)-9-oxo-2,3,4,9-tetrahydro-5H-furo[3,2-f]pyrido[2,1-a]isoquinoline-8-carboxylic Acid] gave a 50% effective concentration (EC50) of less than 100 nM. To `COc1ccc(-c2cc3c(c4c2OCC4)C[C@@H](C(C)(C)C)n2cc(C(=O)O)c(=O)cc2-3)cc1` [Example 78, (S)-5-(tert-butyl)-12-(4-methoxyphenyl)-9-oxo-2,3,4,9-tetrahydro-5H-furo[3,2-f]pyrido[2,1-a]isoquinoline-8-carboxylic Acid] belongs less than 100 nM. Compound `CC(C)(C)[C@@H]1Cc2c(cc(-c3ccc(C(F)(F)F)cc3)c3c2CCO3)-c2cc(=O)c(C(=O)O)cn21` [Example 80, (S)-5-(tert-butyl)-9-oxo-12-(4-(trifluoromethyl)phenyl)-2,3,4,9-tetrahydro-5H-furo[3,2-f]pyrido[2,1-a]isoquinoline-8-carboxylic Acid] gave an EC50 greater than 1000 nM. `CC(C)(C)[C@@H]1Cc2c(cc(-c3cccc(C(F)(F)F)c3)c3c2CCO3)-c2cc(=O)c(C(=O)O)cn21` [Example 81, (S)-5-(tert-butyl)-9-oxo-12-(3-(trifluoromethyl)phenyl)-2,3,4,9-tetrahydro-5H-furo[3,2-f]pyrido[2,1-a]isoquinoline-8-carboxylic Acid] returned an EC50 greater than 1000 nM. To `CC(C)(C)[C@@H]1Cc2c(cc(-c3ccn[nH]3)c3c2CCO3)-c2cc(=O)c(C(=O)O)cn21` [Example 82, (S)-5-(tert-butyl)-9-oxo-12-(1H-pyrazol-5-yl)-2,3,4,9-tetrahydro-5H-furo[3,2-f]pyrido[2,1-a]isoquinoline-8-carboxylic Acid] belongs less than 100 nM. To `CC(C)(C)[C@@H]1Cc2c(cc(-c3cnco3)c3c2CCO3)-c2cc(=O)c(C(=O)O)cn21` [Example 83, (S)-5-(tert-butyl)-12-(oxazol-5-yl)-9-oxo-2,3,4,9-tetrahydro-5H-furo[3,2-f]pyrido[2,1-a]isoquinoline-8-carboxylic Acid] belongs less than 100 nM. To `CC(C)(C)[C@@H]1Cc2c(cc(-c3ccc(Cl)cc3)c3c2CCO3)-c2cc(=O)c(C(=O)O)cn21` [Example 84, (S)-5-(tert-butyl)-12-(4-chlorophenyl)-9-oxo-2,3,4,9-tetrahydro-5H-furo[3,2-f]pyrido[2,1-a]isoquinoline-8-carboxylic Acid] belongs greater than 1000 nM.

Compound `CC(C)(C)[C@@H]1Cc2c(cc(-c3cccc(Cl)c3)c3c2CCO3)-c2cc(=O)c(C(=O)O)cn21` [Example 85, (S)-5-(tert-butyl)-12-(3-chlorophenyl)-9-oxo-2,3,4,9-tetrahydro-5H-furo[3,2-f]pyrido[2,1-a]isoquinoline-8-carboxylic Acid] yielded a 50% effective concentration (EC50) of less than 100 nM. With `CC(C)(C)[C@@H]1Cc2c(cc(-c3cn[nH]c3)c3c2CCO3)-c2cc(=O)c(C(=O)O)cn21` [Example 87, (S)-5-(tert-butyl)-9-oxo-12-(1H-pyrazol-4-yl)-2,3,4,9-tetrahydro-5H-furo[3,2-f]pyrido[2,1-a]isoquinoline-8-carboxylic Acid] the figure was less than 100 nM; with `CC(C)(C)[C@@H]1Cc2c(cc(N3CCCC3)c3c2CCO3)-c2cc(=O)c(C(=O)O)cn21` [Example 88, (S)-5-(tert-butyl)-9-oxo-12-(pyrrolidin-1-yl)-2,3,4,9-tetrahydro-5H-furo[3,2-f]pyrido[2,1-a]isoquinoline-8-carboxylic Acid], less than 100 nM; with `CC(C)[C@@H]1Cc2c(cc(-c3ccc(F)cc3)c3c2CCO3)-c2cc(=O)c(C(=O)O)cn21` [Example 89, (S)-12-(4-fluorophenyl)-5-isopropyl-9-oxo-2,3,4,9-tetrahydro-5H-furo[3,2-f]pyrido[2,1-a]isoquinoline-8-carboxylic Acid], less than 100 nM. To `CC(C)[C@@H]1Cc2c(cc(-c3ccoc3)c3c2CCO3)-c2cc(=O)c(C(=O)O)cn21` [Example 90, (S)-12-(furan-3-yl)-5-isopropyl-9-oxo-2,3,4,9-tetrahydro-5H-furo[3,2-f]pyrido[2,1-a]isoquinoline-8-carboxylic Acid] belongs less than 100 nM. With `CC(C)[C@@H]1Cc2c(cc(-c3cnco3)c3c2CCO3)-c2cc(=O)c(C(=O)O)cn21` [Example 91, (S)-5-isopropyl-12-(oxazol-5-yl)-9-oxo-2,3,4,9-tetrahydro-5H-furo[3,2-f]pyrido[2,1-a]isoquinoline-8-carboxylic Acid] the figure was less than 100 nM; with `COc1cccc(-c2cc3c(c4c2OCC4)C[C@@H](C(C)C)n2cc(C(=O)O)c(=O)cc2-3)c1` [Example 92, (S)-5-isopropyl-12-(3-methoxyphenyl)-9-oxo-2,3,4,9-tetrahydro-5H-furo[3,2-f]pyrido[2,1-a]isoquinoline-8-carboxylic Acid], less than 100 nM; with `CC(C)[C@@H]1Cc2c(cc(-c3ccccc3)c3c2CCO3)-c2cc(=O)c(C(=O)O)cn21` [Example 93, (S)-5-isopropyl-9-oxo-12-phenyl-2,3,4,9-tetrahydro-5H-furo[3,2-f]pyrido[2,1-a]isoquinoline-8-carboxylic Acid], less than 100 nM.

`CC(C)[C@@H]1Cc2c(cc(-c3ccc(C(F)(F)F)cc3)c3c2CCO3)-c2cc(=O)c(C(=O)O)cn21` [Example 94, (S)-5-isopropyl-9-oxo-12-(4-(trifluoromethyl)phenyl)-2,3,4,9-tetrahydro-5H-furo[3,2-f]pyrido[2,1-a]isoquinoline-8-carboxylic Acid] yielded a concentration for a half-maximal effect (EC50) greater than 1000 nM. The compound `CC(C)[C@@H]1Cc2c(cc(-c3cccc(C(F)(F)F)c3)c3c2CCO3)-c2cc(=O)c(C(=O)O)cn21` [Example 95, (S)-5-isopropyl-9-oxo-12-(3-(trifluoromethyl)phenyl)-2,3,4,9-tetrahydro-5H-furo[3,2-f]pyrido[2,1-a]isoquinoline-8-carboxylic Acid] returned a concentration giving a half-maximal response (EC50) greater than 1000 nM. To `CC(C)[C@@H]1Cc2c(cc(-c3ccnn3C)c3c2CCO3)-c2cc(=O)c(C(=O)O)cn21` [Example 96, (S)-5-isopropyl-12-(1-methyl-1H-pyrazol-5-yl)-9-oxo-2,3,4,9-tetrahydro-5H-furo[3,2-f]pyrido[2,1-a]isoquinoline-8-carboxylic Acid] belongs less than 100 nM. For `CC(C)[C@@H]1Cc2c(cc(-c3cnn(C)c3)c3c2CCO3)-c2cc(=O)c(C(=O)O)cn21` [Example 97, (S)-5-isopropyl-12-(1-methyl-1H-pyrazol-4-yl)-9-oxo-2,3,4,9-tetrahydro-5H-furo[3,2-f]pyrido[2,1-a]isoquinoline-8-carboxylic Acid], the EC50 was less than 100 nM.
